Patent publication US9353082B2, “Pharmaceutical compounds” (BIAL—PORTELA & CA, S.A., priority 2008, dated 2016)
Counter-ions that a name gives are not always drawn.

Legend:
FAAH [1] = target: T1, FAAH (Mus musculus, UniProt O08914); experiment: In vivo FAAH inhibition after oral dosing, remaining activity in brain homogenate (BRh, central nervous tissue); set-up: species or system NMRI mice; conditions: brain homogenate, 3 mg/kg, 8 h after dosing; low value = strong inhibitor
T1 construct: A fragment of liver, left lung lobe and brain without cerebellum were removed; from tissue; host or cells: male NMRI mice; brain (without cerebellum) and liver homogenates
T1 sequence (O08914 1-579): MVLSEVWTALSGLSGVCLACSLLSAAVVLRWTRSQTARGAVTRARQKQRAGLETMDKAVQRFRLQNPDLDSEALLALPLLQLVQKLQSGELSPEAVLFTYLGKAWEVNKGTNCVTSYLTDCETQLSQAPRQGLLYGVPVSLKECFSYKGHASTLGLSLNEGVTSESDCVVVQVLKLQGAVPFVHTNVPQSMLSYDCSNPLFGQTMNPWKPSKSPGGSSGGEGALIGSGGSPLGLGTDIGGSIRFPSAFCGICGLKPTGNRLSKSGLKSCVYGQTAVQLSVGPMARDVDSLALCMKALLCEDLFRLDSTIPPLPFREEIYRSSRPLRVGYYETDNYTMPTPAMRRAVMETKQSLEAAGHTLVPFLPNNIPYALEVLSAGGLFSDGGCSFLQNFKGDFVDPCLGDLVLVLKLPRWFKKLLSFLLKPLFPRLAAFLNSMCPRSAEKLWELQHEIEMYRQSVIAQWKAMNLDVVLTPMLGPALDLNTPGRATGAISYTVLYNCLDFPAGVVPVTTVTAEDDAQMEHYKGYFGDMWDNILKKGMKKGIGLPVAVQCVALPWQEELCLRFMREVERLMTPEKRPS
Method: (§1) The in vivo test was performed according to the protocol described below. BRh indicates inhibition in central nervous tissue and LVh indicates inhibition in peripheral tissue, in this case liver.
(§2) The animals used for experiments were male NMRI mice (weighing 27-44 g) obtained from Interfauna Ibérica (Spain). Mice were kept 5 per cage, under controlled environmental conditions (12 hr light/dark cycle and room temperature 22±1° C.). Food and tap water were allowed ad libitum and the experiments were all carried out during daylight hours.
(§3) Animals were administered 30 mg/kg or 3 mg/kg compounds of the invention via oral route (8 ml/kg; compound suspended in 0.5% carboxymethylcellulose (CMC) or solubilized in water) or vehicle (controls) using animal feeding stainless steel curve needles (Perfectum, U.S.A.). Fifteen minutes before sacrifice animal were anesthetized with pentobarbital 60 mg/kg administered intraperitoneally. A fragment of liver, left lung lobe and brain without cerebellum were removed and put in plastic vials containing membrane buffer (3 mM MgCl2, 1 mM EDTA, 50 mM Tris HCl pH 7.4). Tissues were stored at −30° C. until analysis.
(§4) Animals were always fasted overnight before administration of compounds except for time points of >18 h, where food was removed on the morning of day of administration and the compound was administered in the afternoon of the same day. Animals were then given water but nothing else.
(§5) Tissues were thawed on ice and were homogenized in 10 volumes of membrane buffer (3 mM MgCl2, 1 mM EDTA, 50 mM Tris HCl pH 7.4) with either Potter-Elvejhem (brains—8 strokes at 500 rpm) or Heidolph Diax (livers—2 strokes at position 5 for 20 sec with 30 sec pauses).
(§6) Total protein in tissues was determined with the BioRad Protein Assay (BioRad) using a standard curve of BSA (50-250 μg/ml).
(§7) Reaction mix (total volume of 200 μl) contained: […] (2 μM AEA+5 nM ^3H-AEA), 0.1% fatty acid free BSA, 15 μg (brain), 5 μg (liver) or 50 μg (lung) protein, in 1 mM EDTA, 10 mM Tris pH 7.6. After a […] pre-incubation period at 37° C., reaction was started by the addition of the substrate solution (cold AEA+radiolabelled AEA+BSA). Reaction was carried out for 10 min (brain and lung) or […] (liver) before termination by the addition of 400 μl activated charcoal suspension (8 g charcoal in 32 ml 0.5 M HCl in continuous agitation). After a […] incubation period at room temperature with agitation, charcoal was sedimented by centrifugation in microfuge (10 min at 13000 rpm). 200 μl of the supernatant were added to 800 μl Optiphase Supermix scintillation cocktail previously distributed in 24-well plates. Counts per minute (cpm) were determined in a MicrobetaTriLux scintillation counter.
(§8) In each assay blanks (without protein) were prepared.
(§9) The percentage of remaining enzymatic activity was calculated in respect to controls and after blank subtraction.

FAAH [2] = target: T1, FAAH; experiment: In vivo FAAH inhibition after oral dosing, remaining activity in liver homogenate (LVh, peripheral tissue); set-up: species or system NMRI mice; conditions: liver homogenate, 3 mg/kg, 8 h after dosing; low value = strong inhibitor
Method: as §1, §2, §3, §4, §5, §6, §7, §8, §9

SMILES | In Vivo BRh 3 mg·kg 8 h (remaining FAAH activity, % of control) (FAAH [1]) | In Vivo LVh 3 mg·kg 8 h (remaining FAAH activity, % of control) (FAAH [2])
CN(C(=O)n1cnc(-c2ccc3c(c2)[nH]c(=O)n3Cc2ccccc2)c1)C1CCCCC1 [Compound no. 426, 4-(1-benzyl-2-oxo-2,3-dihydro-1H-benzo[d]imidazol-5-yl)-N-cyclohexyl-N-methyl-1H-imidazole-1-carboxamide] | 96.9 % of control | 115.8 % of control
CN(C(=O)n1cnc(-c2ccc(S(=O)(=O)N3CCC(O)CC3)cc2)c1)C1CCCCC1 [Compound no. 432, N-cyclohexyl-4-(4-(4-hydroxypiperidin-1-ylsulfonyl)phenyl)-N-methyl-1H-imidazole-1-carboxamide] | 96.1 % of control | 65.5 % of control
CN(C)c1ccc(-c2cn(C(=O)N(C)C3CCCCC3)cn2)cc1[N+](=O)[O-] [Compound no. 435, N-cyclohexyl-4-(4-(dimethylamino)-3-nitrophenyl)-N-methyl-1H-imidazole-1-carboxamide] | 4.3 % of control | 4.9 % of control
COc1ccc(-c2cn(C(=O)N(C)C3CCCCC3)cn2)cc1-c1nn[nH]n1 [Compound no. 438, N-cyclohexyl-4-(4-methoxy-3-(2H-tetrazol-5-yl)phenyl)-N-methyl-1H-imidazole-1-carboxamide] | 92.4 % of control | 6.1 % of control
CN(C(=O)n1cnc(-c2ccc(O)c(-c3nn[nH]n3)c2)c1)C1CCCCC1 [Compound no. 439, N-cyclohexyl-4-(4-hydroxy-3-(2H-tetrazol-5-yl)phenyl)-N-methyl-1H-imidazole-1-carboxamide] | 94.4 % of control | 58.6 % of control
CC1(C)COCN1C(=O)n1nnc2cc(C(=O)NO)ccc21 [Compound no. 440, 1-(4,4-dimethyloxazolidine-3-carbonyl)-N-hydroxy-1H-benzo[d][1,2,3]triazole-5-carboxamide] | 23.2 % of control | 3.3 % of control
CN(C)c1ccc(-c2cn(C(=O)N(C)C3CCCCC3)cn2)cc1N [Compound no. 447, 4-(3-amino-4-(dimethylamino)phenyl)-N-cyclohexyl-N-methyl-1H-imidazole-1-carboxamide] | 11.8 % of control | 6.5 % of control
COc1ccc(-c2cn(C(=O)N(C)C3CCNCC3)cn2)cc1N [Compound no. 450, 4-(3-amino-4-methoxyphenyl)-N-methyl-N-(piperidin-4-yl)-1H-imidazole-1-carboxamide] | 114.2 % of control | 65.4 % of control
CN(C(=O)n1cnc(-c2ccc(O)cc2)c1)C1CCN(Cc2ccccc2)CC1 [Compound no. 451, N-(1-benzylpiperidin-4-yl)-4-(4-hydroxyphenyl)-N-methyl-1H-imidazole-1-carboxamide hydrobromide] | 1.1 % of control | 0.3 % of control
Br.CN(C(=O)n1cnc(-c2ccc(O)c(F)c2)c1)C1CCN(Cc2ccccc2)CC1 [Compound no. 454, N-(1-benzylpiperidin-4-yl)-4-(3-fluoro-4-hydroxyphenyl)-N-methyl-1H-imidazole-1-carboxamide hydrobromide] | 3.1 % of control | 3 % of control
Br.CN(C(=O)n1cnc(-c2ccc(O)c([N+](=O)[O-])c2)c1)C1CCN(Cc2ccccc2)CC1 [Compound no. 457, N-(1-benzylpiperidin-4-yl)-4-(4-hydroxy-3-nitrophenyl)-N-methyl-1H-imidazole-1-carboxamide hydrobromide] | 28.1 % of control | 10.6 % of control
CN(C(=O)n1cnc(-c2ccc[n+]([O-])c2)c1)C1CCN(Cc2ccccc2)CC1 [Compound no. 459, 3-(1-((1-benzylpiperidin-4-yl)(methyl)carbamoyl)-1H-imidazol-4-yl)pyridine 1-oxide] | 1.3 % of control | 1.9 % of control
Br.CN(C(=O)n1cnc(-c2ccc(O)c(O)c2)c1)C1CCN(Cc2ccccc2)CC1 [Compound no. 465, N-(1-benzylpiperidin-4-yl)-4-(3,4-dihydroxyphenyl)-N-methyl-1H-imidazole-1-carboxamide hydrobromide] | 3.8 % of control | 3.1 % of control
COc1ccc(-c2cn(C(=O)N(C)C3CCOCC3)cn2)cc1N [Compound no. 468, 4-(3-amino-4-methoxyphenyl)-N-methyl-N-(tetrahydro-2H-pyran-4-yl)-1H-imidazole-1-carboxamide] | 4.7 % of control | 4.3 % of control
CN(C(=O)n1cnc(-c2ccc(O)cc2)c1)C1CCN(C(=O)OC(C)(C)C)CC1 [Compound no. 469, tert-butyl 4-(4-(4-hydroxyphenyl)-N-methyl-1H-imidazole-1-carboxamido)piperidine-1-carboxylate] | 1.4 % of control | 0.7 % of control
COc1ccc(-c2cn(C(=O)N(C)C3CCCCC3)cn2)cc1C(N)=O [Compound no. 482, 4-(3-carbamoyl-4-methoxyphenyl)-N-cyclohexyl-N-methyl-1H-imidazole-1-carboxamide] | 83.2 % of control | 16.7 % of control
COc1ccc(-c2cn(C(=O)N(C)C3CCCCC3)cn2)cc1NS(C)(=O)=O [Compound no. 485, N-cyclohexyl-4-(4-methoxy-3-(methylsulfonamido)phenyl)-N-methyl-1H-imidazole-1-carboxamide] | 92.1 % of control | 15.1 % of control
CN(C(=O)n1cnc(-c2cccnc2)c1)C1CCN(CCc2ccccc2)CC1 [Compound no. 488, N-methyl-N-(1-phenethylpiperidin-4-yl)-4-(pyridin-3-yl)-1H-imidazole-1-carboxamide] | 3.8 % of control | 2 % of control
CN(C(=O)n1nnc2ccccc21)C1CCN(Cc2ccccc2)CC1.Cl [Compound no. 492, N-(1-benzylpiperidin-4-yl)-N-methyl-1H-benzo[d][1,2,3]triazole-1-carboxamide hydrochloride] | 0.9 % of control | 0.7 % of control
